In patent publication EP4810052A2, “HCRHR2 SELECTIVE POLYPEPTIDES” (Gubra A/S, priority 2023, dated 2026):
Starred links: 1 amine or outer side, 2 acyl side, 3 side chain; linkers in the order of their positions; H or OH if unused. Non-standard residues stand in square brackets, D forms with d. Residues, ends and D or L forms follow the SMILES beside them. Groups on a side chain read outwards from the residue. *: point of attachment. C20 diacid = O=C(O)CCCCCCCCCCCCCCCCCCC(=O)*; Pro(cis-4-F) = O=C(O)[C@@H]1C[C@H](F)CN1; γGlu = O=C(O)[C@H](CCC(=O)[*:2])N[*:1]; Hyp = O=C(O)[C@@H]1C[C@@H](O)CN1; Nle = CCCC[C@H](N)C(=O)O; Ac5c = NC1(C(=O)O)CCCC1; AEEA = NCCOCCOCC(=O)O

Assays:
hCRHR2 = target: T1, hCRHR2 (Homo sapiens, UniProt Q13324); test: HTRF cAMP assay, determination of hCRHR2 potency (peptide libraries 5 conc., purified peptides 11 conc.); type: cell-based; conditions: library peptides; matched molecular pairs L vs Nle in position X^38; read-out: Potency hCRHR2 pEC50 (converted)
T1 sequence (Q13324 1-411): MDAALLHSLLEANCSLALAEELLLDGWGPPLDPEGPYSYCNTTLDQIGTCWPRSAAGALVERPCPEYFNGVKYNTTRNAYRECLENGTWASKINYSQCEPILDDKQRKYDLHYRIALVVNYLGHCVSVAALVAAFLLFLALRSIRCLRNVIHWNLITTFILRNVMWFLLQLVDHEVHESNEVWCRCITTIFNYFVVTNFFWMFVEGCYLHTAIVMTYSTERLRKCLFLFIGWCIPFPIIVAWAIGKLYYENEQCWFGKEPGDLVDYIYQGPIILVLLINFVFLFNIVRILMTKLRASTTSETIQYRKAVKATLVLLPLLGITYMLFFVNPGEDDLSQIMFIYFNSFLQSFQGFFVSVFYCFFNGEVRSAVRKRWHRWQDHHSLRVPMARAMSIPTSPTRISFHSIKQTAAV
How it was run: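 Read-out was HTRF competitive cAMP detection (d2-labelled cAMP, cryptate-labelled antibody) in suspended, freshly thawed CHO-K1 cells stably carrying human CRHR2.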

hCRHR1 = target: T2, hCRHR1 (Homo sapiens, UniProt P34998); test: HTRF cAMP assay, determination of hCRHR1 potency (peptide libraries 5 conc., purified peptides 11 conc.); type: cell-based; conditions: library peptides; matched molecular pairs L vs Nle in position X^38; read-out: Potency hCRHR1 pEC50 (converted)
T2 sequence (P34998 24-415): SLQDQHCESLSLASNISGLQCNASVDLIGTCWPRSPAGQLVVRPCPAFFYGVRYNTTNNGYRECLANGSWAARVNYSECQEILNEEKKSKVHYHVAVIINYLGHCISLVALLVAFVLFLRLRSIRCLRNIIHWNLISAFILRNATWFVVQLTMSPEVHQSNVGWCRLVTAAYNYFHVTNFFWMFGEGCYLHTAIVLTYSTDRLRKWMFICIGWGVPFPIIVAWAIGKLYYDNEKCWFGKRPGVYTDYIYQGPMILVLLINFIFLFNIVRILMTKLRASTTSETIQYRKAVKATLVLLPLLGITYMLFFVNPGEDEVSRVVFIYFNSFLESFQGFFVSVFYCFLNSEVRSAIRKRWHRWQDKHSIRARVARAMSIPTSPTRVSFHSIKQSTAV
How it was run: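 Cellular cAMP was read by time-resolved FRET between d2-labelled cAMP and cryptate anti-cAMP antibody. The cells were freshly thawed suspension CHO-K1 cells stably expressing human CRHR1.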

Structure (SMILES)	EC50 (hCRHR2) [nM]	EC50 (hCRHR1) [nM]
CC[C@H](C)[C@H](N)C(=O)N[C@H](C(=O)N[C@@H](CC(C)C)C(=O)N[C@@H](CO)C(=O)N[C@@H](CC(C)C)C(=O)N[C@@H](CC(=O)O)C(=O)N[C@H](C(=O)N1C[C@H](O)C[C@H]1C(=O)N[C@H](C(=O)NCC(=O)N[C@@H](CC(C)C)C(=O)N[C@@H](CC(C)C)C(=O)N[C@@H](CCC(N)=O)C(=O)N[C@H](C(=O)N[C@@H](CC(C)C)C(=O)N[C@@H](CC(C)C)C(=O)N[C@@H](CCC(=O)O)C(=O)N[C@@H](CCC(N)=O)C(=O)N[C@@H](C)C(=O)N[C@@H](CCCNC(=N)N)C(=O)N[C@@H](C)C(=O)N[C@@H](CCCNC(=N)N)C(=O)N[C@H](C(=O)N[C@@H](C)C(=O)N[C@@H](CCCNC(=N)N)C(=O)N[C@@H](CCC(=O)O)C(=O)N[C@@H](CCC(N)=O)C(=O)N[C@@H](C)C(=O)N[C@@H](CCCCNC(=O)COCCOCCNC(=O)COCCOCCNC(=O)CC[C@H](NC(=O)CC[C@H](NC(=O)CCCCCCCCCCCCCCCCCCC(=O)O)C(=O)O)C(=O)O)C(=O)N[C@H](C(=O)N[C@@H](CC(N)=O)C(=O)N[C@@H](C)C(=O)N[C@@H](CCC(=O)O)C(=O)N[C@H](C(=O)N[C@@H](CC(C)C)C(=O)N[C@@H](C)C(=O)N[C@@H](CCC(=O)O)C(=O)N[C@H](C(N)=O)C(C)C)[C@@H](C)CC)[C@@H](C)O)C(C)C)[C@@H](C)CC)[C@@H](C)CC)C(C)C)C(C)C [compound 84] (H-IVLSLDV[Hyp]IGLLQILLEQARARVAREQAK([AEEA-AEEA-γGlu-γGlu-C20 diacid])TNAEILAEV-NH2)	1	25.1
CCCC[C@H](NC(=O)[C@@H](NC(=O)[C@H](CCC(=O)O)NC(=O)[C@H](C)NC(=O)[C@H](CC(N)=O)NC(=O)[C@@H](NC(=O)[C@H](CCCCNC(=O)COCCOCCNC(=O)COCCOCCNC(=O)CC[C@H](NC(=O)CC[C@H](NC(=O)CCCCCCCCCCCCCCCCCCC(=O)O)C(=O)O)C(=O)O)NC(=O)[C@H](C)NC(=O)[C@H](CCC(N)=O)NC(=O)[C@H](CCC(=O)O)NC(=O)[C@H](CCCNC(=N)N)NC(=O)[C@H](C)NC(=O)[C@@H](NC(=O)[C@H](CCCNC(=N)N)NC(=O)[C@H](C)NC(=O)[C@H](CCCNC(=N)N)NC(=O)[C@H](C)NC(=O)[C@H](CCC(N)=O)NC(=O)[C@H](CCC(=O)O)NC(=O)[C@H](CC(C)C)NC(=O)[C@H](CC(C)C)NC(=O)[C@@H](NC(=O)[C@H](CCC(N)=O)NC(=O)[C@H](CC(C)C)NC(=O)[C@H](CC(C)C)NC(=O)CNC(=O)[C@@H](NC(=O)[C@@H]1C[C@@H](O)CN1C(=O)[C@@H](NC(=O)[C@H](CC(=O)O)NC(=O)[C@H](CC(C)C)NC(=O)[C@H](CO)NC(=O)[C@H](CC(C)C)NC(=O)[C@@H](NC(=O)[C@@H](N)[C@@H](C)CC)C(C)C)C(C)C)[C@@H](C)CC)[C@@H](C)CC)C(C)C)[C@@H](C)O)[C@@H](C)CC)C(=O)N[C@@H](C)C(=O)N[C@@H](CCC(=O)O)C(=O)N[C@H](C(N)=O)C(C)C [compound 85] (H-IVLSLDV[Hyp]IGLLQILLEQARARVAREQAK([AEEA-AEEA-γGlu-γGlu-C20 diacid])TNAEI[Nle]AEV-NH2)	0.251	2
CC[C@H](C)[C@H](N)C(=O)N[C@H](C(=O)N[C@@H](CC(C)C)C(=O)N[C@@H](CO)C(=O)N[C@@H](CC(C)C)C(=O)N[C@@H](CC(=O)O)C(=O)NC1(C(=O)N2C[C@@H](F)C[C@H]2C(=O)N[C@H](C(=O)NCC(=O)N[C@@H](CC(C)C)C(=O)N[C@@H](CC(C)C)C(=O)N[C@@H](CCC(N)=O)C(=O)N[C@H](C(=O)N[C@@H](CC(C)C)C(=O)N[C@@H](CC(C)C)C(=O)N[C@@H](CCC(=O)O)C(=O)N[C@@H](CCC(N)=O)C(=O)N[C@@H](C)C(=O)N[C@@H](CCCNC(=N)N)C(=O)N[C@@H](C)C(=O)N[C@@H](CCCNC(=N)N)C(=O)N[C@@H](C)C(=O)N[C@@H](C)C(=O)N[C@@H](CCCNC(=N)N)C(=O)N[C@@H](CCC(=O)O)C(=O)N[C@@H](CCC(N)=O)C(=O)N[C@@H](C)C(=O)N[C@@H](CCCCNC(=O)COCCOCCNC(=O)COCCOCCNC(=O)CC[C@H](NC(=O)CC[C@H](NC(=O)CCCCCCCCCCCCCCCCCCC(=O)O)C(=O)O)C(=O)O)C(=O)N[C@H](C(=O)N[C@@H](CC(N)=O)C(=O)N[C@@H](C)C(=O)N[C@@H](CCC(=O)O)C(=O)N[C@H](C(=O)N[C@@H](CC(C)C)C(=O)N[C@@H](C)C(=O)N[C@@H](CCC(=O)O)C(=O)N[C@H](C(N)=O)C(C)C)[C@@H](C)CC)[C@@H](C)O)[C@@H](C)CC)[C@@H](C)CC)CCCC1)C(C)C [compound 86] (H-IVLSLD[Ac5c][Pro(cis-4-F)]IGLLQILLEQARARAAREQAK([AEEA-AEEA-γGlu-γGlu-C20 diacid])TNAEILAEV-NH2)	0.631	3.16
CCCC[C@H](NC(=O)[C@@H](NC(=O)[C@H](CCC(=O)O)NC(=O)[C@H](C)NC(=O)[C@H](CC(N)=O)NC(=O)[C@@H](NC(=O)[C@H](CCCCNC(=O)COCCOCCNC(=O)COCCOCCNC(=O)CC[C@H](NC(=O)CC[C@H](NC(=O)CCCCCCCCCCCCCCCCCCC(=O)O)C(=O)O)C(=O)O)NC(=O)[C@H](C)NC(=O)[C@H](CCC(N)=O)NC(=O)[C@H](CCC(=O)O)NC(=O)[C@H](CCCNC(=N)N)NC(=O)[C@H](C)NC(=O)[C@H](C)NC(=O)[C@H](CCCNC(=N)N)NC(=O)[C@H](C)NC(=O)[C@H](CCCNC(=N)N)NC(=O)[C@H](C)NC(=O)[C@H](CCC(N)=O)NC(=O)[C@H](CCC(=O)O)NC(=O)[C@H](CC(C)C)NC(=O)[C@H](CC(C)C)NC(=O)[C@@H](NC(=O)[C@H](CCC(N)=O)NC(=O)[C@H](CC(C)C)NC(=O)[C@H](CC(C)C)NC(=O)CNC(=O)[C@@H](NC(=O)[C@@H]1C[C@H](F)CN1C(=O)C1(NC(=O)[C@H](CC(=O)O)NC(=O)[C@H](CC(C)C)NC(=O)[C@H](CO)NC(=O)[C@H](CC(C)C)NC(=O)[C@@H](NC(=O)[C@@H](N)[C@@H](C)CC)C(C)C)CCCC1)[C@@H](C)CC)[C@@H](C)CC)[C@@H](C)O)[C@@H](C)CC)C(=O)N[C@@H](C)C(=O)N[C@@H](CCC(=O)O)C(=O)N[C@H](C(N)=O)C(C)C [compound 87] (H-IVLSLD[Ac5c][Pro(cis-4-F)]IGLLQILLEQARARAAREQAK([AEEA-AEEA-γGlu-γGlu-C20 diacid])TNAEI[Nle]AEV-NH2)	0.316	2.51
CC[C@H](C)[C@H](N)C(=O)N[C@H](C(=O)N[C@@H](CC(C)C)C(=O)N[C@@H](CO)C(=O)N[C@@H](CC(C)C)C(=O)N[C@@H](CC(=O)O)C(=O)N[C@H](C(=O)N1CCC[C@H]1C(=O)N[C@H](C(=O)NCC(=O)N[C@@H](CC(C)C)C(=O)N[C@@H](CC(C)C)C(=O)N[C@@H](CCC(N)=O)C(=O)N[C@H](C(=O)N[C@@H](CC(C)C)C(=O)N[C@@H](CC(C)C)C(=O)N[C@@H](CO)C(=O)N[C@@H](CCC(N)=O)C(=O)N[C@@H](C)C(=O)N[C@@H](CCCNC(=N)N)C(=O)N[C@@H](C)C(=O)N[C@@H](CCCNC(=N)N)C(=O)N[C@@H](C)C(=O)N[C@@H](C)C(=O)N[C@@H](CCCNC(=N)N)C(=O)N[C@@H](CCC(=O)O)C(=O)N[C@@H](CCC(N)=O)C(=O)N[C@@H](C)C(=O)N[C@@H](CCCCNC(=O)COCCOCCNC(=O)COCCOCCNC(=O)CC[C@H](NC(=O)CC[C@H](NC(=O)CCCCCCCCCCCCCCCCCCC(=O)O)C(=O)O)C(=O)O)C(=O)N[C@H](C(=O)N[C@@H](CC(N)=O)C(=O)N[C@@H](C)C(=O)N[C@@H](CCC(=O)O)C(=O)N[C@H](C(=O)N[C@@H](CC(C)C)C(=O)N[C@@H](C)C(=O)N[C@@H](CCC(=O)O)C(=O)N[C@H](C(N)=O)[C@@H](C)CC)[C@@H](C)CC)[C@@H](C)O)[C@@H](C)CC)[C@@H](C)CC)C(C)C)C(C)C [compound 88] (H-IVLSLDVPIGLLQILLSQARARAAREQAK([AEEA-AEEA-γGlu-γGlu-C20 diacid])TNAEILAEI-NH2)	0.631	39800
